RBA data for eleven molecules are collected here from ChEMBL document CHEMBL1124201, “Optimizing of 2,3-diarylindenes as fluorescent estrogens: variation of the acceptor group, ortho substitution of the 2-ring, and C-1 methylation” (J Med Chem, 1988).

The target in this assay is Estrogen receptor (Rattus norvegicus) (UniProt P06211+Q62986). Description: Displacement of [3H]estradiol from estrogen receptor of rat uterine cytosol. The assay is classed as protein assay.
Regarding `Oc1ccc(C2=C(c3ccccc3)Cc3cc(O)ccc32)cc1`, the RBA is 4.7%. Molecule `Cc1ccccc1C1=C(c2ccc(O)cc2)c2ccc(O)cc2C1` came in with an RBA of 30%.

Turning to `Oc1ccc(C2=C(c3cccnc3)Cc3cc(O)ccc32)cc1`, the RBA is 0.05%. The result for `O=[N+]([O-])c1ccc(C2=C(c3ccccc3)c3ccc(O)cc3C2)cc1` reads 0.46%.

In turn, `Oc1ccc(C2=C(c3ccc(Br)cc3)Cc3cc(O)ccc32)cc1` yielded an RBA of 0.76%. The figure for `N#Cc1ccc(C2=C(c3ccc(O)cc3)c3ccc(O)cc3C2)cc1` is 1%. Turning to `O=[N+]([O-])c1ccc(C2=C(c3ccc(O)cc3)c3ccc(O)cc3C2)cc1`, the RBA came out at 0.69%. Take `Oc1ccc(C2=C(c3ccccc3C(F)(F)F)Cc3cc(O)ccc32)cc1`: the RBA is 38%. The molecule `Oc1ccc(C2=C(c3ccccc3)c3ccc(O)cc3C2)cc1` displayed an RBA of 28%. The figure for `CC1C(c2ccccc2)=C(c2ccccc2)c2ccc(O)cc21` (stereo unspecified) is 12%; for `O=[N+]([O-])c1cccc(C2=C(c3ccc(O)cc3)c3ccc(O)cc3C2)c1` it is 0.6%.
